Results published in the kinase profiling compilation of Christmann-Franck et al. (2016).

Columns and labels:
Assay in all cases: radiometric filter-binding kinase assay
[1] = tested on: AKT2 (human), P31751 [S474D]
CAMKK2 (human) = CAMKK2 (human) (UniProt Q96RR4)
CHEK1 (human) = CHEK1 (human) (UniProt O14757)
CLK2 (human) = CLK2 (human) (UniProt P49760)
CSNK1D (human) = CSNK1D (human) (UniProt P48730)
DYRK1A (human) = DYRK1A (human) (UniProt Q13627)
EPHA4 (human) = EPHA4 (human) (UniProt P54764)
HIPK3 (human) = HIPK3 (human) (UniProt Q9H422)
IGF1R (human) = IGF1R (human) (UniProt P08069)
IKBKE (human) = IKBKE (human) (UniProt Q14164)
IRAK4 (human) = IRAK4 (human) (UniProt Q9NWZ3)
MAP3K7 TAB1 (human) = MAP3K7 TAB1 (human) (UniProt Q15750+O43318)
Sequence of MAP3K7 TAB1 (human) (O43318 whole entry, looked up): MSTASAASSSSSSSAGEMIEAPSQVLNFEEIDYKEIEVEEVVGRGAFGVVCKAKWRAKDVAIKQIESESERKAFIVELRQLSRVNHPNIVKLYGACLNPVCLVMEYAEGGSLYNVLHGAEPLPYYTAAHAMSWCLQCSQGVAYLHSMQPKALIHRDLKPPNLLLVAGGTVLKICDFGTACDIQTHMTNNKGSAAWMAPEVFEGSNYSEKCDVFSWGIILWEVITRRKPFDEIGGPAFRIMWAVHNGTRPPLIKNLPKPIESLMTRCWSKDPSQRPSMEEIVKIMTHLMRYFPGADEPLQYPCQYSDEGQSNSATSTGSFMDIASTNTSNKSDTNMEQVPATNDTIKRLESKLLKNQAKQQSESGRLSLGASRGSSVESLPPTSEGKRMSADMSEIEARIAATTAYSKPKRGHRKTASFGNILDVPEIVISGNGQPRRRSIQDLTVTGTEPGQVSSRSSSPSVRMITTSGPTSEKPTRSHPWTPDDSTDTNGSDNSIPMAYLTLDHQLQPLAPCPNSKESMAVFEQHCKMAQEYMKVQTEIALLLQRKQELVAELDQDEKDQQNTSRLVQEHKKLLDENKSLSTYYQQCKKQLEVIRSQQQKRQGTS
Sequence of MAP3K7 TAB1 (human) (Q15750 whole entry, looked up): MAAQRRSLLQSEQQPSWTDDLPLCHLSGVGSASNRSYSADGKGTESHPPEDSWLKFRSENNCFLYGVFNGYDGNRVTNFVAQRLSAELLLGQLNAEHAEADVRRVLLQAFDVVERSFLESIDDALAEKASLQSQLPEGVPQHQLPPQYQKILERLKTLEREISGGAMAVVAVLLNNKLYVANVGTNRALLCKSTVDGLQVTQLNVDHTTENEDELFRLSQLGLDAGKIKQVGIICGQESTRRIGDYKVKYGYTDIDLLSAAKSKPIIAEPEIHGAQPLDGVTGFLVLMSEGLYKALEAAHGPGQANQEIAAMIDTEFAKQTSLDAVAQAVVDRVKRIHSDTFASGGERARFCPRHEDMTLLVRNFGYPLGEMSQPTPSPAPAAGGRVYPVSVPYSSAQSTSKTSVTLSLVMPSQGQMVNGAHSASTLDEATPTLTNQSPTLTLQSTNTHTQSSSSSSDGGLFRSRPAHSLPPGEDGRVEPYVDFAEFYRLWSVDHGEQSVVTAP

MAPK12 (human) = MAPK12 (human) (UniProt P53778)
MAPK14 (human) = MAPK14 (human) (UniProt Q16539)
Sequence of MAPK14 (human) (Q16539 whole entry, looked up): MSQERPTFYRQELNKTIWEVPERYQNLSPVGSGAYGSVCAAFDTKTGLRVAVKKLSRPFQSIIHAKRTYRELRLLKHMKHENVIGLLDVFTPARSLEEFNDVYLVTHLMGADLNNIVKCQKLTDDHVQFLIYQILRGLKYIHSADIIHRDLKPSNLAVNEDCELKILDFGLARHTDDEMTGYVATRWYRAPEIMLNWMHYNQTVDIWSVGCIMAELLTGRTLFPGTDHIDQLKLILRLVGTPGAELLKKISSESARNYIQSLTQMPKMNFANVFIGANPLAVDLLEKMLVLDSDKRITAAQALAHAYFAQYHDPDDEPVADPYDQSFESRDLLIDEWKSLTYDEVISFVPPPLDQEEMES

MAPK15 (human) = MAPK15 (human) (UniProt Q8TD08)
MAPK3 (human) = MAPK3 (human) (UniProt P27361)
MAPKAPK2 (human) = MAPKAPK2 (human) (UniProt P49137)
MARK1 (human) = MARK1 (human) (UniProt Q9P0L2)
MARK2 (human) = MARK2 (human) (UniProt Q7KZI7)
MST4 (human) = MST4 (human) (UniProt Q9P289)
Sequence of MST4 (human) (Q9P289 whole entry, looked up): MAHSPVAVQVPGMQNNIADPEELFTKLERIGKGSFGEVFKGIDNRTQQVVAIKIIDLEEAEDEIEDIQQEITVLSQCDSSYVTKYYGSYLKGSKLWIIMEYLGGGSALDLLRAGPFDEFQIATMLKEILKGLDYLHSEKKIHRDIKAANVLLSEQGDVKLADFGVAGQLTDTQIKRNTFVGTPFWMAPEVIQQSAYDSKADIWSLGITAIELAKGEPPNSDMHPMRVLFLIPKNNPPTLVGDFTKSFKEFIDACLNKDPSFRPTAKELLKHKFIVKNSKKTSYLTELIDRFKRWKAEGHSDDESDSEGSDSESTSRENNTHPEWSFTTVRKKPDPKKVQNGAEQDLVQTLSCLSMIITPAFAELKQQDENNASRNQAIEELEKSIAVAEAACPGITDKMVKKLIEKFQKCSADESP

NEK2 (human) = NEK2 (human) (UniProt P51955)
NEK6 (human) = NEK6 (human) (UniProt Q9HC98)
Sequence of NEK6 (human) (Q9HC98 whole entry, looked up): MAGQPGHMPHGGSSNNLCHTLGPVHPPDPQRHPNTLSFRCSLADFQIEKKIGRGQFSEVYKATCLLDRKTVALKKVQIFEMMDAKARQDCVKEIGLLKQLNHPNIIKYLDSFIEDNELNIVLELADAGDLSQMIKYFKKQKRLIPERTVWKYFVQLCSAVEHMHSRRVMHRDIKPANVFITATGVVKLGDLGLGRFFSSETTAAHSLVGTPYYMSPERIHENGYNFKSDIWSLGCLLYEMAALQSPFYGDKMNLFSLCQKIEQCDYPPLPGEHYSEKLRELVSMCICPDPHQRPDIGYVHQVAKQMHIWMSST

[2] = tested on: PAK2 (human), Q13177 [T402E]
PAK4 (human) = PAK4 (human) (UniProt O96013)
PAK6 (human) = PAK6 (human) (UniProt Q9NQU5)
Sequence of PAK6 (human) (Q9NQU5 whole entry, looked up): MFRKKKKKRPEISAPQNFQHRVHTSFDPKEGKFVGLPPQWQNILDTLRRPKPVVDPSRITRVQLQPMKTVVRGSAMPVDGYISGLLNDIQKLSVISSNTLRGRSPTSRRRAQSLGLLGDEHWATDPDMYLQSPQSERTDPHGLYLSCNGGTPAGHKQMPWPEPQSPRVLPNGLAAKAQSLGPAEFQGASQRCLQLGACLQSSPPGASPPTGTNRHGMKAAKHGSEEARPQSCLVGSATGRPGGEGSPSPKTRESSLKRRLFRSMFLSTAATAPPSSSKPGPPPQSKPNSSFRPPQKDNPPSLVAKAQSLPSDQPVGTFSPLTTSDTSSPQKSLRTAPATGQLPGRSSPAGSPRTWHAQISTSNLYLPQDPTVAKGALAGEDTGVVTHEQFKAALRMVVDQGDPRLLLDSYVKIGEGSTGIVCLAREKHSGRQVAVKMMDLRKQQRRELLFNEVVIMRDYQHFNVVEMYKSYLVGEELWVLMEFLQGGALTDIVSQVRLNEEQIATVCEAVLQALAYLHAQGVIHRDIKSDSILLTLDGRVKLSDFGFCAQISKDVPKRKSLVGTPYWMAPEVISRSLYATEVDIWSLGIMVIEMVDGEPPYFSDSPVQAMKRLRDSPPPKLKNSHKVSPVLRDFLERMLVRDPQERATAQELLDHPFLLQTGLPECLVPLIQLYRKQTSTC

PAK7 (human) = PAK7 (human) (UniProt Q9P286)
Sequence of PAK7 (human) (Q9P286 whole entry, looked up): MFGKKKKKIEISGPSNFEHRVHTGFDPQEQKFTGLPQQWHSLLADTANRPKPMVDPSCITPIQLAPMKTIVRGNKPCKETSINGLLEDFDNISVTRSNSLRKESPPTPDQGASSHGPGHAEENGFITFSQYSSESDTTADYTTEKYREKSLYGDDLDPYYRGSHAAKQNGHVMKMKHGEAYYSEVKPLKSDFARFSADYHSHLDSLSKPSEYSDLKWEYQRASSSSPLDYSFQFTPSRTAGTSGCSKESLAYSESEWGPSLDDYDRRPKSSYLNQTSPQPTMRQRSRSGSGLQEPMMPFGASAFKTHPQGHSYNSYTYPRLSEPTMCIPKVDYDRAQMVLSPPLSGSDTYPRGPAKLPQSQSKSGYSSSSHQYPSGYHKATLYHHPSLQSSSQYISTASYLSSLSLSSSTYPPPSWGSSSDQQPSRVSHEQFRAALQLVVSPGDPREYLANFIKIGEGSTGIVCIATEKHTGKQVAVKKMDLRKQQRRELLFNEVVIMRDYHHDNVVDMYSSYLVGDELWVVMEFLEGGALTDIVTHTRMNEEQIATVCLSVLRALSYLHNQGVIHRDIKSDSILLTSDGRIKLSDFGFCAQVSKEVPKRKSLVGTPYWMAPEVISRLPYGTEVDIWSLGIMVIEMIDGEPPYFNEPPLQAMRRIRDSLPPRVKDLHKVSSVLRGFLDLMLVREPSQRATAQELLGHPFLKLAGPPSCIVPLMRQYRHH

PIM2 (human) = PIM2 (human) (UniProt Q9P1W9)
PIM3 (human) = PIM3 (human) (UniProt Q86V86)
PKN2 (human) = PKN2 (human) (UniProt Q16513)
PLK1 (human) = PLK1 (human) (UniProt P53350)
RIPK2 (human) = RIPK2 (human) (UniProt O43353)
RPS6KA3 KD1 KD2 (human) = RPS6KA3 KD1 KD2 (human) (UniProt P51812)
Sequence of RPS6KA3 KD1 KD2 (human) (P51812 whole entry, looked up): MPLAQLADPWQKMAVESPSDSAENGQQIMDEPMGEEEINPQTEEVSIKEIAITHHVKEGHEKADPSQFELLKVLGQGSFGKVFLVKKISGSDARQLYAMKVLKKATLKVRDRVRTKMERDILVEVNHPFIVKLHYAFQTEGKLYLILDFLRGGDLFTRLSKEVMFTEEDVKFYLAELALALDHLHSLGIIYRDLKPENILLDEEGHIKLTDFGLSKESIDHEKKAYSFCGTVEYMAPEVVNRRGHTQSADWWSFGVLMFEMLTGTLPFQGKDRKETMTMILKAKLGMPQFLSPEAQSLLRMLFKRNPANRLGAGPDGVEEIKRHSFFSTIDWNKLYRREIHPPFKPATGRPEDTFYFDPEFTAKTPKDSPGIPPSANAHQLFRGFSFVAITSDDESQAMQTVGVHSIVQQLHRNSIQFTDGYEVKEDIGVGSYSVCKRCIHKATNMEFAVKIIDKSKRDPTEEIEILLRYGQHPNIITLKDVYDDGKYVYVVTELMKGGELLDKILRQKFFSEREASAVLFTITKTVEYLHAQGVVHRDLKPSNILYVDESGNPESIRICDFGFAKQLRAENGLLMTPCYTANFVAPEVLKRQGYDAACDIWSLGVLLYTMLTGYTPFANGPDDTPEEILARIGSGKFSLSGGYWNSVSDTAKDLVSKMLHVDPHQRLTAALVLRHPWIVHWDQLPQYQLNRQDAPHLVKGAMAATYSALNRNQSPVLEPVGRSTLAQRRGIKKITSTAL

RPS6KA5 KD1 KD2 (human) = RPS6KA5 KD1 KD2 (human) (UniProt O75582)
[3] = tested on: SGK1 (human), O00141 [S422D]
SRPK1 (human) = SRPK1 (human) (UniProt Q96SB4)

Sequence of CAMKK2 (human) (Q96RR4 whole entry, looked up): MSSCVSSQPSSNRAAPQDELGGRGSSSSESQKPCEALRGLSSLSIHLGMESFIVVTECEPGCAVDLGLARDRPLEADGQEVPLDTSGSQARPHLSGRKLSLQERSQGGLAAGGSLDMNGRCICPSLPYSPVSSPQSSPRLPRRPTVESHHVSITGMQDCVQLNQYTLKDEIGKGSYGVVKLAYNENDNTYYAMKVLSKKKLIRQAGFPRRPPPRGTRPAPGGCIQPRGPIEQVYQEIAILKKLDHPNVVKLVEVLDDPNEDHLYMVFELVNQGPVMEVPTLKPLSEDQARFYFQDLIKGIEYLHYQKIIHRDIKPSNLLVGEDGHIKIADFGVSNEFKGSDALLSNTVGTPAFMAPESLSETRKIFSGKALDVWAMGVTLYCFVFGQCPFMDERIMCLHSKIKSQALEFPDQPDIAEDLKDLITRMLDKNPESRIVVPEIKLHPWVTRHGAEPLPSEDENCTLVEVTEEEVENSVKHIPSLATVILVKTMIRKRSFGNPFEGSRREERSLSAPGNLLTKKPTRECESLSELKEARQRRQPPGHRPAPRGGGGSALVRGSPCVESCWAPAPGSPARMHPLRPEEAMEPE

Compound: NC1(c2ccc(-c3nc4ccn5c(=O)[nH]nc5c4cc3-c3ccccc3)cc2)CCC1
- residual activity ([1]; compound 0.1 µM): 69%
- residual activity ([1]; compound 1.0 µM): 86%
- residual activity ([1]; compound 10.0 µM): 68%
- residual activity (CAMKK2 (human); compound 0.1 µM): 92%
- residual activity (CAMKK2 (human); compound 1.0 µM): 99%
- residual activity (CAMKK2 (human); compound 10.0 µM): 84%
- residual activity (CHEK1 (human); compound 0.1 µM): 96%
- residual activity (CHEK1 (human); compound 1.0 µM): 78%
- residual activity (CHEK1 (human); compound 10.0 µM): 45%
- residual activity (CLK2 (human); compound 0.1 µM): 103%
- residual activity (CLK2 (human); compound 1.0 µM): 81%
- residual activity (CLK2 (human); compound 10.0 µM): 67%
- residual activity (CSNK1D (human); compound 0.1 µM): 119%
- residual activity (CSNK1D (human); compound 1.0 µM): 100%
- residual activity (CSNK1D (human); compound 10.0 µM): 91%
- residual activity (DYRK1A (human); compound 0.1 µM): 95%
- residual activity (DYRK1A (human); compound 1.0 µM): 88%
- residual activity (DYRK1A (human); compound 10.0 µM): 57%
- residual activity (EPHA4 (human); compound 0.1 µM): 107%
- residual activity (EPHA4 (human); compound 1.0 µM): 116%
- residual activity (EPHA4 (human); compound 10.0 µM): 97%
- residual activity (HIPK3 (human); compound 0.1 µM): 117%
- residual activity (HIPK3 (human); compound 1.0 µM): 100%
- residual activity (HIPK3 (human); compound 10.0 µM): 100%
- residual activity (IGF1R (human); compound 0.1 µM): 116%
- residual activity (IGF1R (human); compound 1.0 µM): 85%
- residual activity (IGF1R (human); compound 10.0 µM): 55%
- residual activity (IKBKE (human); compound 0.1 µM): 88%
- residual activity (IKBKE (human); compound 1.0 µM): 90%
- residual activity (IKBKE (human); compound 10.0 µM): 91%
- residual activity (IRAK4 (human); compound 0.1 µM): 106%
- residual activity (IRAK4 (human); compound 1.0 µM): 92%
- residual activity (IRAK4 (human); compound 10.0 µM): 99%
- residual activity (MAP3K7 TAB1 (human); compound 0.1 µM): 81%
- residual activity (MAP3K7 TAB1 (human); compound 1.0 µM): 107%
- residual activity (MAP3K7 TAB1 (human); compound 10.0 µM): 49%
- residual activity (MAPK12 (human); compound 0.1 µM): 94%
- residual activity (MAPK12 (human); compound 1.0 µM): 94%
- residual activity (MAPK12 (human); compound 10.0 µM): 101%
- residual activity (MAPK14 (human); compound 0.1 µM): 110%
- residual activity (MAPK14 (human); compound 1.0 µM): 97%
- residual activity (MAPK14 (human); compound 10.0 µM): 101%
- residual activity (MAPK15 (human); compound 0.1 µM): 106%
- residual activity (MAPK15 (human); compound 1.0 µM): 89%
- residual activity (MAPK15 (human); compound 10.0 µM): 93%
- residual activity (MAPK3 (human); compound 0.1 µM): 108%
- residual activity (MAPK3 (human); compound 1.0 µM): 87%
- residual activity (MAPK3 (human); compound 10.0 µM): 93%
- residual activity (MAPKAPK2 (human); compound 0.1 µM): 99%
- residual activity (MAPKAPK2 (human); compound 1.0 µM): 110%
- residual activity (MAPKAPK2 (human); compound 10.0 µM): 88%
- residual activity (MARK1 (human); compound 0.1 µM): 113%
- residual activity (MARK1 (human); compound 1.0 µM): 88%
- residual activity (MARK1 (human); compound 10.0 µM): 98%
- residual activity (MARK2 (human); compound 0.1 µM): 102%
- residual activity (MARK2 (human); compound 1.0 µM): 97%
- residual activity (MARK2 (human); compound 10.0 µM): 94%
- residual activity (MST4 (human); compound 0.1 µM): 95%
- residual activity (MST4 (human); compound 1.0 µM): 103%
- residual activity (MST4 (human); compound 10.0 µM): 105%
- residual activity (NEK2 (human); compound 0.1 µM): 95%
- residual activity (NEK2 (human); compound 1.0 µM): 87%
- residual activity (NEK2 (human); compound 10.0 µM): 87%
- residual activity (NEK6 (human); compound 0.1 µM): 106%
- residual activity (NEK6 (human); compound 1.0 µM): 98%
- residual activity (NEK6 (human); compound 10.0 µM): 90%
- residual activity ([2]; compound 0.1 µM): 98%
- residual activity ([2]; compound 1.0 µM): 94%
- residual activity ([2]; compound 10.0 µM): 103%
- residual activity (PAK4 (human); compound 0.1 µM): 75%
- residual activity (PAK4 (human); compound 1.0 µM): 78%
- residual activity (PAK4 (human); compound 10.0 µM): 66%
- residual activity (PAK6 (human); compound 0.1 µM): 85%
- residual activity (PAK6 (human); compound 1.0 µM): 100%
- residual activity (PAK6 (human); compound 10.0 µM): 91%
- residual activity (PAK7 (human); compound 0.1 µM): 101%
- residual activity (PAK7 (human); compound 1.0 µM): 96%
- residual activity (PAK7 (human); compound 10.0 µM): 75%
- residual activity (PIM2 (human); compound 0.1 µM): 86%
- residual activity (PIM2 (human); compound 1.0 µM): 105%
- residual activity (PIM2 (human); compound 10.0 µM): 97%
- residual activity (PIM3 (human); compound 0.1 µM): 89%
- residual activity (PIM3 (human); compound 1.0 µM): 83%
- residual activity (PIM3 (human); compound 10.0 µM): 51%
- residual activity (PKN2 (human); compound 0.1 µM): 95%
- residual activity (PKN2 (human); compound 1.0 µM): 96%
- residual activity (PKN2 (human); compound 10.0 µM): 92%
- residual activity (PLK1 (human); compound 1.0 µM): 105%
- residual activity (PLK1 (human); compound 10.0 µM): 94%
- residual activity (RIPK2 (human); compound 0.1 µM): 101%
- residual activity (RIPK2 (human); compound 1.0 µM): 84%
- residual activity (RIPK2 (human); compound 10.0 µM): 38%
- residual activity (RPS6KA3 KD1 KD2 (human); compound 0.1 µM): 91%
- residual activity (RPS6KA3 KD1 KD2 (human); compound 1.0 µM): 90%
- residual activity (RPS6KA3 KD1 KD2 (human); compound 10.0 µM): 81%
- residual activity (RPS6KA5 KD1 KD2 (human); compound 0.1 µM): 84%
- residual activity (RPS6KA5 KD1 KD2 (human); compound 1.0 µM): 90%
- residual activity (RPS6KA5 KD1 KD2 (human); compound 10.0 µM): 76%
- residual activity ([3]; compound 0.1 µM): 90%
- residual activity ([3]; compound 1.0 µM): 85%
- residual activity ([3]; compound 10.0 µM): 63%
- residual activity (SRPK1 (human); compound 0.1 µM): 107%
- residual activity (SRPK1 (human); compound 1.0 µM): 106%
- residual activity (SRPK1 (human); compound 10.0 µM): 116%
